Data reported in patent US20250381269A1, “BISPECIFIC ANTIBODY BINDING EGFR AND B7-H3” (FORTVITA BIOLOGICS (SINGAPORE) PTE. LTD., priority 2022, published 2025).

Tests used:
H292 = assay type: cell-based, human; settings: EGFR WT, KRAS WT, huPBMC:target 50:1, 8 h, LDH
Protocol: (§1) • (1) A CTS medium (Gibco, A3021002) was preheated at 37° C. huPBMC (Miaotong Biotechnology, PB 100C-W) was quickly thawed in a water bath, and then the cells were added slowly to 8 mL of CTS medium (containing 1% DNase). • (2) The mixture was centrifuged at 300 g for 8 min. The supernatant was removed, and the cells were resuspended in 30 mL of CTS (containing 10 μL of DNase), transferred to a T75 flask, and incubated in an incubator at 37° C. overnight. • (3) The suspension cells cultured overnight were taken and centrifuged at 300 g for 8 min. The supernatant was removed, and the cell density was adjusted with CTS. According to an effector/target ratio of effector cells (huPBMCs) to target cells (tumor cells in Table 5) of 50:1, huPBMCs and the tumor cells prepared in advance (Target: huPBMC=1.5E4/7.5E5 cells/well/100 μL) were plated in a 96-well low-adsorption plate (Corning. CLS7007-24EA). • (4) The diluted antibody drug was added to the corresponding cell well plate and cultured at 37° C. with 5% CO2 for 8 h. • (5) The mixture was centrifuged at 300 g for 5 min. 50 μL of the supernatant was transferred to a 96-well transparent flat-bottom plate ((NUNC, 136101), 50 μL of the LDH reagent (Promega, G1780) prepared in advance was added to the corresponding well plate, and the plate was left to stand at room temperature for 15-30 min in the dark. • (6) 50 μL LDH stop solution (Promega, G1780) was taken and detected by a multimode microplate reader (Molecular Devices, Spectra MAXi3) at 490 nm for readings.

SK-MES-1 = assay type: cell-based, human; settings: EGFR Amplification, KRAS WT, huPBMC:target 50:1, 8 h, LDH
Protocol: as §1

H1650 = assay type: cell-based, human; settings: EGFR Amplification Del19, KRAS WT, huPBMC:target 50:1, 8 h, LDH
Protocol: as §1

H322 [1] = assay type: cell-based, human; settings: EGFR WT, KRAS WT, huPBMC:target 50:1, 8 h, LDH
Protocol: as §1

H1975 = assay type: cell-based, human; settings: EGFR L858R T790M, KRAS WT, huPBMC:target 50:1, 8 h, LDH
Protocol: as §1

H358 = assay type: cell-based, human; settings: EGFR WT, KRAS G12C, huPBMC:target 50:1, 8 h, LDH
Protocol: as §1

H322 [2] = experiment: Proliferation inhibition experiment, H322 (NSCLC); assay type: cell-based; settings: EGFR WT, KRAS WT
Protocol: (§2) • (1) NSCLC: plated at 1500-2500 cells/100 μL in a 96-well low-adsorption plate (Corning, CLS7007-24EA) for 3D cell culture, in which the following cell lines and specific amounts were used: • NSCLC: 2000 cells/100 μL/well • NCI-H292: Cell Bank of the Chinese Academy of Sciences, SCSP-582 • NCI-H322: Cobioer, CBP60134 • NCI-H1650: ATCC, CRL-5883 • NCI-H1975: ATCC, CRL-5908 • SK-MES-1: CoBioer, CBP60152 • NCI-H1703: ATCC, HTB-43 • PC9+hB7H3: constructed as described above • CRC and HNSCC: plated at 1500-2000 cells/100 μL in a 96-well white-bottom plate (NUNC, 136101) for 2D cell culture, in which the following cell lines and specific amounts were used: • CRC: 1500 cells/100 μL/well • CCK-81: CoBioer, CBP60581 • HT-55: CoBioer, CBP60012 • H508: CoBioer, CBP60795 • LS180: CoBioer, CBP60034 • HNSCC: 1500 cells/100 μL/well • TE-1: CoBioer, CBP60655 • Colo680: CoBioer, CBP60452. (2) The antibody molecules prepared in advance by dilution were added to the corresponding cell well plate, mixed well, and cultured in an incubator at 37° C. with 5% CO2 for 5 days. • (3) After 5 days of continuous culture for proliferation inhibition assay, the Cell-Titer reagent (Promega, G7572) prepared in advance was added to cell wells, the plate was left to stand at room temperature for 15-25 min in the dark, and then CRC and HNSCC cells were directly detected by a multimode microplate reader (Molecular Devices, Spectra MAXi3). • (4) NSCLC: Cell-Titer and the cell mixture were transferred to a 96-well white-bottom plate (NUNC, 136101) and detected by a multimode microplate reader (Molecular Devices, Spectra MAXi3).

TE-1 = experiment: Proliferation inhibition experiment, TE-1 (HNSCC); assay type: cell-based; settings: EGFR WT, KRAS WT
Protocol: as §2

H1703 = assay type: cell-based, human; settings: EGFR Amplification, KRAS WT, huPBMC:target 50:1, 8 h, LDH
Protocol: as §1

LS180 = experiment: Proliferation inhibition experiment, LS180 (CRC); assay type: cell-based; settings: EGFR R521K, KRAS G12D
Protocol: • (1) NSCLC: plated at 1500-2500 cells/100 μL in a 96-well low-adsorption plate (Corning, CLS7007-24EA) for 3D cell culture, in which the following cell lines and specific amounts were used: • NSCLC: 2000 cells/100 μL/well • NCI-H292: Cell Bank of the Chinese Academy of Sciences, SCSP-582 • NCI-H322: Cobioer, CBP60134 • NCI-H1650: ATCC, CRL-5883 • NCI-H1975: ATCC, CRL-5908 • SK-MES-1: CoBioer, CBP60152 • NCI-H1703: ATCC, HTB-43 • PC9+hB7H3: constructed as described above • CRC and HNSCC: plated at 1500-2000 cells/100 μL in a 96-well white-bottom plate (NUNC, 136101) for 2D cell culture, in which the following cell lines and specific amounts were used: • CRC: 1500 cells/100 μL/well • CCK-81: CoBioer, CBP60581 • HT-55: CoBioer, CBP60012 • H508: CoBioer, CBP60795 • LS180: CoBioer, CBP60034 • HNSCC: 1500 cells/100 μL/well • TE-1: CoBioer, CBP60655 • Colo680: CoBioer, CBP60452. […]

Row | Substance | EC50 (H292) [pM] | EC50 (SK-MES-1) [pM] | EC50 (H1650) [pM] | EC50 (H322 [1]) [pM] | EC50 (H1975) [pM] | EC50 (H358) [pM] | Max inhibition (%) Mean ± SD (H322 [2]) [%] | IC50 (H322 [2]; 3D culture, 5 days) [pM] | Max inhibition (%) Mean ± SD (TE-1) [%] | IC50 (TE-1; 2D culture, 5 days) [pM] | EC50 (H1703) [pM] | Max inhibition (%) Mean ± SD (LS180) [%]
1 | amivantamab [JNJ372] | 4 | 72 | 427 | 32 | 117 | 30 | 38.2 ± 6.7 | 8060 | 32.2 ± 4.7 | 570000 | – | –
2 | zalutumumab [Zalu mAb] | 1 | 14 | 571 | 14 | 118 | 7 | 39.9 ± 0.8 | – | 42.2 ± 1.1 | – | 7 | 41.0 ± 2.2
